Laboratory results reported in PMC6530635, “A Novel Single-Site Mutation in the Catalytic Domain of Protoporphyrinogen Oxidase IX (PPO) Confers Resistance to PPO-Inhibiting Herbicides” (Frontiers in Plant Science, 2019).
Read-outs that look alike come from different tables or passages of the source.

Experiments:
[1] = molecular target: recombinant Amaranthus tuberculatus PPO2 wild-type enzyme (Amaranthus tuberculatus, UniProt Q0NZW9); assay: biochemical
[2] = tested on: Amaranthus palmeri MIS-D population; design: method as in Salas-Perez et al., 2017; details: ref Salas-Perez et al., 2017, cited from earlier work; for Response of MIS-D to 1X dose / Frequency of resistant plants: MIS-D field population
[3] = tested on: Amaranthus palmeri (Palmer amaranth) populations MIS-D, R39P, R43P and SS; assay type: in vivo; details: visual injury 21 DAT, foliar spray
[4] = tested on: Amaranthus palmeri R39P population; assay type: in vivo; details: for Frequency of resistant plants: R39P F1 population, 2X recommended dose, 21 DAT, 25 seedlings

Chain of recombinant Amaranthus tuberculatus PPO2 wild-type enzyme (Q0NZW9 1-534): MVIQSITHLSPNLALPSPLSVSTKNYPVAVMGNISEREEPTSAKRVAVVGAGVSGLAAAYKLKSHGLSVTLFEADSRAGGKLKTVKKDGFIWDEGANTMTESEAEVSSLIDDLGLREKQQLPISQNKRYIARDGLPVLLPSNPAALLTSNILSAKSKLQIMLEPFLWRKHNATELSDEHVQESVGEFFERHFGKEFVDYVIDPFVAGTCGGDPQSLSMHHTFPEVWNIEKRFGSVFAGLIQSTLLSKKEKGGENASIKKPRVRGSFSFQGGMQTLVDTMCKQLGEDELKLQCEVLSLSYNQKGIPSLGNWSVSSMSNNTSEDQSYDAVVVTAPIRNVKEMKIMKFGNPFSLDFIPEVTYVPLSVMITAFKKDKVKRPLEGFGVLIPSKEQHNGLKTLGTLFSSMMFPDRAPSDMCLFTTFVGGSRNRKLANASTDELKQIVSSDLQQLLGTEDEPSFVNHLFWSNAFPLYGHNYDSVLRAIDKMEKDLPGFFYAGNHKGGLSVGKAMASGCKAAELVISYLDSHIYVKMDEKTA

Compound	IC50 [1]	Response of MIS-D to 1X dose [2]	Frequency of resistant plants ([2]; 1X dose)	Frequency of resistant plants [4]	further results
C=CCOC(=O)C(C)(C)OC(=O)c1cc(-n2c(=O)cc(C(F)(F)F)n(C)c2=O)ccc1Cl [Butafenacil]	0.00896 nM	–	–	–	–
Cc1nn(-c2cc(NS(C)(=O)=O)c(Cl)cc2Cl)c(=O)n1C(F)F [Sulfentrazone]	17.5 nM	–	–	–	–
CCOC(=O)COc1cc(-c2nn(C)c(OC(F)F)c2Cl)c(F)cc1Cl [Pyraflufen-ethyl]	0.0519 nM	resistant	–	–	–
CS(=O)(=O)NC(=O)c1cc(Oc2ccc(C(F)(F)F)cc2Cl)ccc1[N+](=O)[O-] [Fomesafen]	1.32 nM	resistant	42%	–	ED50 (dose causing 50% herbicide injury) ([3]; MIS-D field population, PPO-resistant): 124 (101–147) g ai ha^-1; ED50 (dose causing 50% herbicide injury) ([3]; R39P F1 population, PPO-resistant): 143 (122–165) g ai ha^-1; ED50 (dose causing 50% herbicide injury) ([3]; R43P F1 population, PPO-resistant): 187 (174–202) g ai ha^-1; ED50 (dose causing 50% herbicide injury) ([3]; SS population, PPO-sensitive): 12 (10–13) g ai ha^-1; Survival rate ([4]; R39P, 2X dose): < 20%
CCOC(=O)C(C)OC(=O)c1cc(Oc2ccc(C(F)(F)F)cc2Cl)ccc1[N+](=O)[O-] (stereo not shown) [Lactofen]	0.056 nM	resistant	23%	40%	Frequency of resistant plants ([4]; listed as lactofen): ≥ 40%
C#CCN1C(=O)COc2cc(F)c(N3C(=O)C4=C(CCCC4)C3=O)cc21 [Flumioxazin]	0.039 nM	resistant	40%	60%	Frequency of resistant plants ([4]; listed as flumioxazin): ≥ 40%
C#CCN(C)c1c(C#N)cnn1-c1nn2c(c1Cl)CCCC2 [Pyraclonil]	–	–	–	–	IC50 ([1]; read-out: Wild type sensitivity [IC50]): 1.39 nM
COC(=O)CSc1cc(/N=c2\sc(=O)n3n2CCCC3)c(F)cc1Cl [Fluthiacet-methyl]	0.669 nM	resistant	–	–	–
O=C(O)c1cc(Oc2ccc(C(F)(F)F)cc2Cl)ccc1[N+](=O)[O-] [Acifluorfen]	18.5 nM	–	1%	8%	Survival rate ([4]; in vivo): < 20%; Mortality ([2]; MIS-D, 1X dose): > 90%
CC(C)N(C)S(=O)(=O)NC(=O)c1cc(-n2c(=O)cc(C(F)(F)F)n(C)c2=O)c(F)cc1Cl [Saflufenacil]	–	–	–	–	Survival rate ([4]; in vivo): < 20%
CCOc1cc(Oc2ccc(C(F)(F)F)cc2Cl)ccc1[N+](=O)[O-] [Oxyfluorfen]	0.0342 nM	–	–	–	–
CC(C)Oc1cc(-n2nc(C(C)(C)C)oc2=O)c(Cl)cc1Cl [Oxadiazon]	0.7 nM	–	–	–	–
Cc1nn(-c2cc(CC(Cl)C(=O)O)c(Cl)cc2F)c(=O)n1C(F)F (stereo not shown) [Carfentrazone]	0.196 nM	resistant	–	64%	Frequency of resistant plants ([4]; listed as carfentrazone): ≥ 40%
